Experimental data: patent publication US20120114636A1, “LOW MOLECULAR WEIGHT CYCLIN E (LMW-E) AS A BIOMARKER FOR PERSONALIZATION OF CANCER THERAPIES” (The Board of Regents of the University of Texas System, priority 2009, published 2012)

What was measured:
Assay type in all cases: cell-based, human
[1] = tested on: MCF-7/Ac1 cells; assay: Cell cycle analysis by flow cytometry (PI); conditions: letrozole with 25 nM AD, concentration not given
Protocol: Cell cycle analysis. MCF-7/Ac1 cells were cultured in estrogen-deprived media with or without 25 nM 4-androstenedione, and treated with different concentrations of aromatase inhibitors. Untreated and drug treated cells were collected 72 hours later for flow cytometry and lysates were prepared for western blot and kinase assays.
(§1) Flow cytometry analysis. Cells were pelleted and resuspended in 1.5 ml of PBS, then fixed in 3.5 ml of 95% ethanol overnight at −20° C. After being washed, the pellets were resuspended in a solution of PBS containing 10 μg/ml propidium iodide, 20 μg/ml RNase A, 0.5% Tween 20, and 0.5% BSA and incubated at 37° C. for 30 min. The profiles of cells in the G0-G1, S, and G2-M phases of the cell cycle were analyzed at the M. D. Anderson Cancer Center Cytometry Core Facility on a FACS Caliber machine equipped with Cellquest or ModFit software.
FIGS. 22A-22C show the effect of aromatase inhibitor treatment on proliferative response and cell cycle distribution of MCF-7/Ac1 cells. Cells were cultured in IMEM with 10% charcoal-stripped serum medium (CSSM) without phenol red and with 600 μg/ml of G418 for 4 days before plating. Cells (100,000) were seeded in 100 mm dishes and, 24 hrs later, were exposed for 3 days to the specific treatment. […] Cell growth is expressed as the percentage of the cells compared with the control cells (25 nM AD treated cells, 575,000 cells at day 3). Columns, mean of two to three experiments, each in triplicates; bars, S.D. *, P<0.05, when compared to cells only treated with 25 nM AD; n.s, not significant. CSSM, untreated cells cultured in charcoal-stripped serum medium without phenol red and with 600 μg/ml of G418.

[2] = tested on: cyclin E-associated kinase activity in MCF-7/Ac1 cells; assay: Cyclin E-associated kinase assay (histone H1); conditions: with 25 nM AD, 3 days
Protocol: Immunoprecipitation and Immunoblotting. Two hundred fifty μg of cell extracts were used per immunoprecipitation with polyclonal antibody to cyclin E or polyclonal antibody to CDK2, coupled to protein A beads. After being washed, the immunoprecipitates were subjected to electrophoresis in 13% gels, transferred to Immobolin P, blocked, and incubated with the indicated antibodies as already described.
MCF-7/Ac1 cells were treated with the indicated concentrations of letrozole and AD for 3 days. Cyclin E kinase assays were performed by immunoprecipitating equal amounts of cell lysate (250 μg) with monoclonal antibodies to cyclin E coupled to protein A beads, using histone H1 as substrate. […] The same cell lysates were subjected to western blot analysis (50 μg of protein) with the indicated antibodies. […] The same cell lysates were first immunoprecipitated with cyclin E followed by western blot for p21 and p27. […] The same cell lysates were first immunoprecipitated with CDK2 followed by western blot for p21 and p27. The levels of proteins were measured by densitometric scanning of the corresponding bands and normalized using actin values. The values indicated at the bottom were compared to the values obtained with untreated cells.

[3] = tested on: MCF-7/Ac1 cells; assay: S-phase fraction by flow cytometry of adenovirus-infected cells; conditions: 1 μM letrozole with 25 nM AD
Protocol: as §1
LMW cyclin E, but not full-length cyclin E, overexpressing MCF-7/Ac1 cells partially override the letrozole inhibition of AD-induced S-phase entry and AD-induced CDK2 protein levels. Since overexpression of LMW cyclin E deregulates the G1 to S transition, the inventors interrogated the role of full-length and LMW cyclin E in letrozole response. To this end, the inventors examined the sensitivity of cyclin E overexpressing MCF-7/Ac1 cells to the growth inhibitory effect of letrozole using adenoviruses to overexpress full-length and LMW cyclin E (FIGS. 24A-24D). MCF-7/Ac1 cells were cultured in charcoal stripped serum media (CSSM) for 4 days before infecting them with 4000 m.o.i. of either LacZ, full-length cyclin E (cyclin EL) or LMW cyclin E (cyclin E-T1 and cyclin E-T2). Twenty-four hours later, cells were left either untreated, treated with 25 nM AD alone, or treated with 25 nM AD plus 1 μM letrozole for an additional 3 days (FIGS. 24A-24B). Following the treatment, cells were enumerated or subjected to flow cytometry analysis.
MCF-7/Ac1 cells were cultured in IMEM with 10% charcoal-stripped serum medium (CSSM) without phenol red and with 600 μg/ml of G418 for 4 days before plating. Triplicate wells of 6-well plates were then infected with the indicated adenoviruses (at 4000 m.o.i.) 24 hours before drug treatment. Cells were then left untreated (E2W, estrogen withdrawal) or treated with 25 nM AD (AD) or treated with 25 nM AD and 1 μM letrozole (AD+Let) and collected 3 days later for cell number. Cell growth is expressed as the percentage of the cells compared with the control cells (25 nM AD treated cells). […] MCF-7/Ac1 cells were treated as described in A, and collected for flow cytometry analysis. Histograms represent the S-phase fraction expressed as the percentage of the cells in S-phase compared with the control cells (25 nM AD treated cells). […] The same cell lysates as in A and B were subjected to western blot analysis (50 μg of protein) with cyclin E and CDK2 antibodies. The bar graph represents the densitometric values of the phosphorylated CDK2 bands. […] Left, MCF-7/Ac1 cells were cultured in IMEM with 10% charcoal-stripped serum medium (CSSM) without phenol red and with 600 μg/ml of G418 for 4 days before plating. Cells were then infected with the indicated adenoviruses (at 4000 m.o.i.) 24 hours before drug treatment. Cells were then treated with 25 nM AD and 1 μM letrozole and collected 3 days later for cell number. […] Columns, mean of two to three experiments, each in triplicates; bars, S.D.

N#Cc1ccc(C(c2ccc(C#N)cc2)n2cncn2)cc1 [letrozole]
cells in G0/G1 [1]: 61.2+/−1.5% | cells in S phase [1]: 13.1+/−2.3% | concentration that blocked the AD-induced increase in cyclin E-associated kinase activity [2]: ≤ 0.125 µM | decrease in number of cells in S phase ([3]; LacZ-infected cells): 37% | decrease in number of cells in S phase ([3]; cyclin E-T1-infected cells): 16% | decrease in number of cells in S phase ([3]; cyclin E-T2-infected cells): 21% | decrease in number of cells in S phase ([3]; cyclin EL-infected cells): 42% | decrease in number of cells in S phase ([3]; uninfected cells): 62%
